Data set [1] can be described thus: Toxicity in CB17-SCID mouse xenografted with human […] cells assessed as effect on body weight at 10 to 20 mg/kg, ip daily for 16 days. It is filed as organism-based, COLO 205. The note with it: in vivo, 384 h, dose 10-20 mg/kg, time 16 day.
Another data set has as its system LoVo. The experiment in a line: Antiproliferative against human LoVo cells assessed as cell viability at 0.0001 to 100 uM at day 4 by CCK-8 assay. It is filed as functional, cell-based. The note with it: dose 0.0001-100 µM.
For data set [2], the target named is T1, Protein cereblon/Dual specificity protein kinase TTK (Homo sapiens, UniProt P33981+Q96SW2). The experiment in a line: Protac activity at CRBN/TTK in human LoVo cells assessed as degradation of TTK measured at […] for 6 hrs by Western blotting analysis. The class given is cell-based. The note with it: dose lower 5.0 µM. For orientation: Immunoblotting shows a protein as a band on a membrane.
Target sequence in this assay (Q96SW2 whole entry, looked up, one chain of several): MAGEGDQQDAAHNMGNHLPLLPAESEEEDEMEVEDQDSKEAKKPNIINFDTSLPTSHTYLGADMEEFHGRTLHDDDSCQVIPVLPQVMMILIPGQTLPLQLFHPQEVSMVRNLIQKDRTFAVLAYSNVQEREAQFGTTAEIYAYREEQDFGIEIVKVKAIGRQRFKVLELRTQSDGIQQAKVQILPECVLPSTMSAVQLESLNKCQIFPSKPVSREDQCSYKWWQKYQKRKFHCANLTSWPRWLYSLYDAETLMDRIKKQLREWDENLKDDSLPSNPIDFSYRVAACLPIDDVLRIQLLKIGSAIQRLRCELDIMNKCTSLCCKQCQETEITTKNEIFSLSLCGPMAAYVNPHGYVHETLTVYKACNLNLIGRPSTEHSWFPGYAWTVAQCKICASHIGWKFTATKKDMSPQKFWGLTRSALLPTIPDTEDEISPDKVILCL

The target of data set [3] is T1, Protein cereblon/Dual specificity protein kinase TTK. The experiment in a line: In vivo protac activity at CRBN/TTK in human COLO-205 cells xenografted in CB17-SCID mouse at 10 to 20 mg/kg, ip daily for 16 days by western blotting analysis. The class given is organism-based. As to conditions: dose 10-20 mg/kg, time 16.0 day. In general terms: In xenograft studies the graft and the host belong to different species.
Target sequence in this assay (Q96SW2 whole entry, looked up, one chain of several): as above

For data set [4] the target is unchanged. The experiment in a line: Protac activity at CRBN/TTK in human COLO 205 cells assessed as degradation of TTK measured after 6 hrs by Western blotting analysis. It is filed as cell-based.
Target sequence in this assay (Q96SW2 whole entry, one chain of several): as the sequence (Q96SW2 whole entry, looked up, one chain of several) above
For data set [5] the target is unchanged. The experiment in a line: Protac activity at CRBN/TTK in human COLO 205 cells assessed as induction of TTK degradation at 5 nM after 6 to 8 hrs post washout by Western blot analysis. As to conditions: time 6-8 hrs. The class given is cell-based.
Target sequence in this assay (Q96SW2 whole entry, looked up, one chain of several): as above
Data set [6] has the same target. The experiment in a line: Protac activity at CRBN/TTK in human COLO 205 cells assessed as TTK degradation by measuring maximum degradation after 6 hrs by Western blotting analysis relative to control. The class given is cell-based.
Target sequence in this assay (Q96SW2 whole entry, looked up, one chain of several): as above
Data set [7] has the same target. The experiment in a line: Protac activity at CRBN/TTK in human HCT-116 cells assessed as degradation of TTK measured after 6 hrs by Western blotting analysis. It is filed as cell-based.
Target sequence in this assay (Q96SW2 whole entry, one chain of several): as the sequence (Q96SW2 whole entry, looked up, one chain of several) above
Data set [8] can be described thus: AUC in Sprague-Dawley rat at 10 mg/kg, ip by LC-MS/MS analysis. The class given is ADME, organism-based. More on the design: dose 10 mg/kg. As to conditions: in vivo.
The target of data set [9] is T1, Protein cereblon/Dual specificity protein kinase TTK. The experiment in a line: Protac activity at CRBN/TTK in human COLO 205 cells assessed as induction of TTK degradation in presence of MG132 incubated for 1 hr by Western blotting analysis relative to control. It is filed as cell-based.
Target sequence in this assay (Q96SW2 whole entry, looked up, one chain of several): as above
Data set [10] relates to COLO 205. The experiment in a line: Antiproliferative against human COLO 205 cells assessed as cell viability after 4 days by CCK-8 assay. It is filed as functional, cell-based. The note with it: COLO 205, 96 h.
Data set [11] deals with COLO 205. The experiment in a line: Antitumor activity against human COLO205 cells xenografted in CB17-SCID mouse assessed as tumor growth inhibition at 20 mg/kg, ip daily for 16 days relative to control. It is filed as functional. The note with it: COLO 205, ip, 384 h, time 16 day, read-out: TGI.
Another data set concerns HCT-8. The experiment in a line: Antiproliferative against human HCT-8 cells assessed as cell viability at 0.0001 to 100 uM at day 4 by CCK-8 assay. As to conditions: dose 0.0001-100 µM. It is filed as functional, cell-based. (Tetrazolium assays rely on reduction of a dye to a coloured formazan, in cell work by metabolically active cells.)
Data set [12] has as its target T1, Protein cereblon/Dual specificity protein kinase TTK. The experiment in a line: Protac activity at CRBN/TTK in human […] cells assessed as degradation of TTK measured at […] for 6 hrs by Western blotting analysis. It is filed as cell-based. The note with it: dose lower 5.0 µM.
Target sequence in this assay (Q96SW2 whole entry, looked up, one chain of several): as above
For data set [13] the target is unchanged. The experiment in a line: Protac activity at CRBN/TTK in human COLO 205 cells assessed as induction of TTK degradation at 5 nM after 16 hrs post washout by Western blot analysis. The class given is cell-based.
The next data set has as its system HCT-29. The experiment in a line: Antiproliferative against human […] cells assessed as cell viability at 0.0001 to 100 uM at day 4 by CCK-8 assay. The class given is functional, cell-based. The note with it: dose 0.0001-100 µM.
For data set [14], the target named is T1, Protein cereblon/Dual specificity protein kinase TTK. The experiment in a line: Protac activity at CRBN/TTK in human HCT-8 cells assessed as degradation of TTK measured at […] for 6 hrs by Western blotting analysis. The class given is cell-based. The note with it: dose lower 5.0 µM.
A short description of data set [15]: Half life in Sprague-Dawley rat at 10 mg/kg, ip by LC-MS/MS analysis. It is filed as ADME, organism-based. As to conditions: in vivo.
Data set [16] has as its target T1, Protein cereblon/Dual specificity protein kinase TTK. The experiment in a line: Protac activity at CRBN/TTK in human COLO 205 cells assessed as induction of TTK degradation in presence of N-[4-[2-[2-methoxy-4-(4-methylpiperazin-1-yl)anilino]-5-methyl-7-oxo-pyrido[2,3-d]pyrimidin-8-yl]cyclohexyl]propanamide after 6 hrs by Western blotting relative to control. The class given is cell-based.

The subject of data set [17] is COLO 205. The experiment in a line: Antitumor activity against human COLO205 cells xenografted in CB17-SCID mouse assessed as tumor growth inhibition at 10 mg/kg, ip daily for 16 days relative to control. It is filed as functional, organism-based. As to conditions: time 16.0 day.
For data set [18], the target named is T1, Protein cereblon/Dual specificity protein kinase TTK. The experiment in a line: Protac activity at CRBN/TTK in human HCT-116 cells assessed as TTK degradation by measuring maximum degradation after 6 hrs by Western blotting analysis relative to control. The class given is cell-based.
Data set [19] addresses T2, Dual specificity protein kinase TTK (Homo sapiens, UniProt P33981).
T2 sequence (P33981 whole entry): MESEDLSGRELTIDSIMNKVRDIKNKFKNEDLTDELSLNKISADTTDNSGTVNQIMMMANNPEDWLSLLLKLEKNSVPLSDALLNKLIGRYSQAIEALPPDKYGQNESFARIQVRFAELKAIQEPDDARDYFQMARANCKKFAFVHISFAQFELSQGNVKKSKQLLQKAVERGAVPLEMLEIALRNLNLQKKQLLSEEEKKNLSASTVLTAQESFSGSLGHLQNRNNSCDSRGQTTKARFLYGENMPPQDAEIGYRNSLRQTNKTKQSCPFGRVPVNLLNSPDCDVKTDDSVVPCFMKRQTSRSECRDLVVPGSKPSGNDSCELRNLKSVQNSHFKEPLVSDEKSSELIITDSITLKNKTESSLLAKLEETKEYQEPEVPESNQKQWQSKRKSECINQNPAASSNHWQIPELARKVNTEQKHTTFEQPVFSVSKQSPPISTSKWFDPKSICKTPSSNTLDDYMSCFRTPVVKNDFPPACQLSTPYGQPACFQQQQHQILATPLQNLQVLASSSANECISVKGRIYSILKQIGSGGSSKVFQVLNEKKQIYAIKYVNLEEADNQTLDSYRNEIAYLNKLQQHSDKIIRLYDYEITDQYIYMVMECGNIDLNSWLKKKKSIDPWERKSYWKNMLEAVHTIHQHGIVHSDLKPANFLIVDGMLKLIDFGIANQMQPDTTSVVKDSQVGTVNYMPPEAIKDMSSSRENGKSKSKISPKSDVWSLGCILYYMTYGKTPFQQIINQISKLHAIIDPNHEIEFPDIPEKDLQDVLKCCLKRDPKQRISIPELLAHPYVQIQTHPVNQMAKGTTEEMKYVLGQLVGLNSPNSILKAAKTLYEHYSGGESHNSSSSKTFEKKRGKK
The experiment in a line: Binding affinity to human TTK expressed in bacterial expression system assessed as dissociation constant at 100 nM by biochemical assay.

Active and inactive are the calls of the source. No cut-off for these calls is given here.

Results on 2 compounds are retold here after ChEMBL document CHEMBL5038659, “Discovery of the First Examples of Threonine Tyrosine Kinase PROTAC Degraders” (J Med Chem, 2022).

As to `CCC(=O)N[C@H]1CC[C@@H](n2c(=O)cc(C)c3cnc(Nc4ccc(N5CCN(C(=O)CCCC#Cc6ccc7c(c6)CN(C6CCC(=O)NC6=O)C7=O)CC5)cc4OC)nc32)CC1` (stereo partly drawn), the Activity result in data set [1] was “Non-Toxic”; in the data set with LoVo, “Dose-Dependent Effect”; in data set [2], “Dose-Dependent Effect”; with HCT-8, “Dose-Dependent Effect”; in [12], “Dose-Dependent Effect”; in the data set on HCT-29, “Dose-Dependent Effect”. For the same compound, the Activity result in data set [14] was “Dose-Dependent Effect”. Besides, the outcome in data set [3] and in data set [5] was Active. In addition, the values for the DC50 in [4] and in [7] were 1.7 nM and 5.8 nM, respectively. The values for the Emax in data set [6] and in [18] were 88% and 80%, respectively. This compound also had an AUC in data set [8] of 2240 ng·h/mL. Also, the outcome (in data set [9]; in [13]; in data set [16]; in the data set on COLO 205 [17]) was inactive. For the same compound, the IC50 with COLO 205 [10] was found to be 100 nM. In addition, the inhibition in vivo at 20 mg/kg in the data set on COLO 205 [11] was found to be 46%. In data set [15], the half-life is 4.3 h.
Regarding `CCC(=O)N[C@H]1CC[C@@H](n2c(=O)cc(C)c3cnc(Nc4ccc(N5CCN(C)CC5)cc4OC)nc32)CC1`, in [19], the dissociation constant (Kd) came out at 0.7 nM. The IC50 with COLO 205 [10] turned out to be 800 nM.

By DC50 is commonly meant the midpoint of the concentration-degradation curve. The term Emax denotes the size of the effect at its maximum, as opposed to the concentration needed. As a reminder, the AUC is concentration integrated over time. The IC50 is the point on the concentration scale where inhibition reaches its midpoint. A word on the half-life: it is how long it takes for the measured level to halve. A low value points to fast loss. By Kd is commonly meant the constant that tells how readily two partners part at equilibrium.
